Results reported in patent US20050165109A1, “Pharmaceutical composition with combined active agents and methods for using the same” (priority 2002, published 2005).

Legend:
[1] = literature: WO 99/40904, U.S. Pat. No. 5,304,575, Vuorinen-Markkola 1993, Hernandez-Mijares 2000; cited from earlier work
[2] = test system: ob/ob mice; test: Plasma glucose in ob/ob mice, metformin/ciprofibrate, oral once a day for 4 days; format: in vivo; conditions: for Effect on plasma glucose concentrations (in words) / Glucose levels Day 4: ob/ob mice; for Effect on plasma glucose concentrations (in words): 4 days oral, versus vehicle; for Difference between Vehicle & treatment: plasma glucose Day 4, ob/ob mice; for Difference between Vehicle & treatment / Glucose levels Day 4: metformin 90 mg/kg, ciprofibrate 2.5 mg/kg; for Glucose levels Day 4: plasma glucose, oral once a day for 4 days
Method: (§1) Experiment was conducted in ob/ob mice, an animal model of diabetes. Male, 8-9 week old ob/ob mice were purchased from Jackson Laboratory (Bar Harbor, Me.) and housed in a temperature and humidity controlled room with 12 hour light (6 am to 6 pm)/dark (6 pm-6 am) cycle and ad libitum of water and regular Purina chow. Animals were screened for plasma glucose levels and randomized into groups for experiments.
Experiment was conducted in ob/ob mice. The experimental condition was the same as Working Example 1.
In this experiment, 8 animals were orally dosed with vehicle, metformin (90 mg/kg), ciprofibrate (2.5 mg/kg), or combination of metformin (90 mg/kg) and ciprofibrate (2.5 mg/kg) once a day for 4 days. Plasma glucose concentrations were determined at the end of the experiment.

[3] = test system: ob/ob mice; test: Plasma glucose in ob/ob mice, metformin/gemfibrozil, oral once a day for 3 days; format: in vivo; conditions: for Effect on plasma glucose concentrations (in words) / Glucose levels Day 3: ob/ob mice; for Effect on plasma glucose concentrations (in words): 3 days oral, versus vehicle; for Difference between Vehicle & treatment: plasma glucose Day 3, ob/ob mice; for Difference between Vehicle & treatment / Glucose levels Day 3: metformin 90 mg/kg, gemfibrozil 100 mg/kg; for Glucose levels Day 3: plasma glucose, oral once a day for 3 days
Method: as §1
In this experiment, 8 animals were orally dosed with vehicle, metformin (90 mg/kg), gemfibrozil (100 mg/kg), or combination of metformin (90 mg/kg) and gemfibrozil (100 mg/kg) once a day for 3 days. Plasma glucose concentrations were determined at the end of the experiment.

SMILES | Glucose-lowering effect (in words) [1] | Effect on plasma glucose concentrations (in words) [2] | Effect on plasma glucose concentrations (in words) ([2]; listed as ciprofibrate) | Difference between Vehicle & treatment [2] [mg/dL] | Glucose levels Day 4 [2] [mg/dL] | Effect on plasma glucose concentrations (in words) [3] | Effect on plasma glucose concentrations (in words) ([3]; listed as gemfibrozil) | Difference between Vehicle & treatment [3] [mg/dL] | Glucose levels Day 3 [3] [mg/dL]
CC(C)(Oc1ccc(C2CC2(Cl)Cl)cc1)C(=O)O (stereo not shown) [Ciprofibrate, ciprofibrate] | lack of glucose-lowering effect | did not have significant effect on glucose levels | minimum effect on reducing plasma glucose and it was not statistically significant | -32.2 | 351.1 ± 23.1 |  |  |  | 
Cc1ccc(C)c(OCCCC(C)(C)C(=O)O)c1 [Gemfibrozil, gemfibrozil] | lack of glucose-lowering effect |  |  |  |  | did not have significant effect on glucose level | minimum reduction of plasma glucose and it was not statistically significant | -57.1 | 349.7 ± 39.0
CN(C)C(=N)N=C(N)N [Metformin, metformin] |  | significantly reduced plasma glucose concentrations |  | -84.1 | 299.2 ± 24.9 | significantly reduced plasma glucose concentrations |  | -88.2 | 318.6 ± 29.3
